We go through 4 compounds from patent US20240254175A1, “NOVEL SELECTIVE ANT[…] PEPTIDES” (BOMBI BIOMICS BV, priority 2021, published 2024).

Non-standard residues stand in square brackets, D forms with d. Residues, ends and D or L forms follow the SMILES beside them. No end group written: not given here. *: point of attachment. Palmitoyl = CCCCCCCCCCCCCCCC(=O)*

Data set [1] deals with C. acnes biofilm. The following applies: strains with the strongest C. acnes biofilm formation ability.
Protocol: Briefly, 250 μl of bacterial cells (1×10^6 CFU/ml) of 10 strains (C. acnes 3, 4, 23, 25, 55, 61, 62, 63, 68, 78) (FIG. 9) with the strongest biofilm formation ability were inoculated in a Greiner polyethylene 96well plate (Sigma Aldrich); TSB culture medium containing no bacteria was used as the blank control, and the plate was incubated at 37° C. for 24 hours. The culture medium was subsequently removed, and wells were carefully washed with PBS three times to remove C. acnes bacteria.
Subsequently, 250 μl of TSB culture medium containing the aforementioned polypeptides in serial doubling dilutions was added to each well. TSB medium without any of the polypeptides was used as a negative control, and plates were incubated at 37° C. for 24 hours. If OD600<0.1, there was no bacterial growth, and the lowest concentration without bacterial growth at this time point was recorded; this is the Minimum Biofilm Inhibitory Concentration (MBIC). Then, the cells and polypeptides in the 96-well cell culture plate were washed with PBS, and 250 μl of TSB culture medium was added to each well.
The plates were incubated at 37° C. for 24 hours to re-grow the surviving biofilm bacteria. […] The lowest concentration at which no bacterial growth was recorded is the minimal biofilm eradication concentration (MBEC).
The subject of data set [2] is other bacteria tested (C. granulosum, C. avidum, S. aureus, S. epidermis, C. striatum). The data set can be described thus: In vitro killing assay on the other (non C. acnes) bacteria. It is filed as cell-based. The procedure: Inoculi of mid-log phase bacteria were prepared by incubating the above isolated colonies from blood agar plates in Tryptic Soy Broth (TSB) medium (Becton Dickinson, Le Pont de Clax, France) for 2.5 hours and then diluted to the concentration needed.
For the in vitro killing assay on mid-log phase bacteria, each of the above strains were resuspended to a concentration of 1×10^6 bacteria/ml in phosphate buffered saline (PBS). Subsequently, 200 μl was added to a concentration range of peptides Wildtype BLP-7, BMBN-1, BMBN-2, BMBN-3, BMBN-4, BMBN-5, BMBN-6, and BMBN-7 that were lyophilized in advance. Subsequently, the bacteria-peptide mixtures were incubated for 1 hour at 37° C. To establish the killing capacity and specificity of these peptides, the suspensions were serially diluted and plated onto DST agar plates to measure viable CFU counts. IC90, IC99 and IC99.9 values were calculated by linear regression analysis. […] Results were pooled from 4 independent experiments concerning the above C. acnes strains (FIG. 2B) and 5 independent experiments concerning the other non C. acnes related strains (FIG. 2B continued). The results are expressed as mean±standard deviation (SD).

For data set [3], the system named is human erythrocytes. The procedure: A hemolytic assay was performed as previously described by Zelezetsky et al.. Freshly drawn human erythrocytes were rinsed three times with phosphate buffered saline (PBS) and resuspended in PBS to 4% (v/v). […] PBS and 0.1% (v/v) Triton-X 100 were used as 0% and 100% hemolytic control respectively. Plates were incubated at 37° C. for 1 hour.
Subsequently, the plate was centrifuged and the supernatant was transferred to a new plate. The release of hemoglobin in the supernatant was monitored at absorbance of 450 nm using an Infinite M1000 Microplate reader (Tecan). Results were pooled from three independent experiments and expressed as mean±SD. HC10 and HC50 were defined as the peptide concentrations causing 10% and 50% hemolysis on human erythrocytes, respectively.

Regarding `CCCCCCCCCCCCCCCC(=O)NCC(=O)N[C@H](C(=O)NCC(=O)NCC(=O)N[C@@H](C)C(=O)N[C@@H](CC(C)C)C(=O)N[C@@H](CC(C)C)C(=O)N[C@@H](CO)C(=O)N[C@@H](C)C(=O)NCC(=O)N[C@@H](CCCCN)C(=O)N[C@@H](CO)C(=O)N[C@@H](C)C(=O)N[C@@H](CC(C)C)C(=O)N[C@@H](CCCCN)C(=O)NCC(=O)N[C@@H](CC(C)C)C(=O)N[C@@H](C)C(=O)N[C@@H](CCCCN)C(=O)NCC(=O)N[C@@H](CC(C)C)C(=O)N[C@@H](C)C(=O)N[C@@H](CCC(=O)O)C(=O)N[C@@H](Cc1c[nH]cn1)C(=O)N[C@@H](Cc1ccccc1)C(=O)N[C@@H](C)C(=O)N[C@@H](CC(N)=O)C(N)=O)[C@@H](C)CC` [BMBN-1] (Palmitoyl-GIGGALLSAGKSALKGLAKGLAEHFAN-NH2), the “MBEC (concentration that eradicates the biofilm)” value in data set [1] fell in the range of 235 to 496 µg/mL.

Consider `CCCCCCCCCCCCCCCC(=O)N[C@@H](CCC(=O)O)C(=O)N[C@@H](CCCNC(=N)N)C(=O)N[C@@H](CC(N)=O)C(=O)N[C@@H](CC(N)=O)C(=O)N[C@@H](Cc1ccccc1)C(=O)NCC(=O)NCC(=O)NCC(=O)N[C@H](CC(N)=O)C(=O)N[C@H](C)C(=O)N[C@H](Cc1ccccc1)C(=O)N[C@H](Cc1c[nH]cn1)C(=O)N[C@H](CCC(=O)O)C(=O)N[C@H](C)C(=O)N[C@H](CC(C)C)C(=O)NCC(=O)N[C@H](CCCCN)C(=O)N[C@H](C)C(=O)N[C@H](CC(C)C)C(=O)NCC(=O)N[C@H](CCCCN)C(=O)N[C@H](CC(C)C)C(=O)N[C@H](C)C(=O)N[C@H](CO)C(=O)N[C@H](CCC(=O)O)C(=O)NCC(=O)N[C@H](C)C(=O)N[C@H](CO)C(=O)N[C@H](CC(C)C)C(=O)N[C@H](CC(C)C)C(=O)N[C@H](C)C(=O)NCC(=O)NCC(=O)N[C@@H](C(=O)NCC(N)=O)[C@H](C)CC` [BMBN-6] (Palmitoyl-ERNNFGGG[dN][dA][dF][dH][dE][dA][dL]G[dK][dA][dL]G[dK][dL][dA][dS][dE]G[dA][dS][dL][dL][dA]GG[dI]G-NH2), for which the “effect on other, untargeted bacteria / specificity towards C. acnes (in words)” value in data set [2] is “specificity towards C. acnes only negligibly decreased”.

As for `CCCCCCCCCCCCCCCC(=O)N[C@H](CCC(=O)O)C(=O)N[C@H](CCCNC(=N)N)C(=O)N[C@H](CC(N)=O)C(=O)N[C@H](CC(N)=O)C(=O)N[C@H](Cc1ccccc1)C(=O)NCC(=O)NCC(=O)NCC(=O)NCC(=O)N[C@@H](C(=O)NCC(=O)NCC(=O)N[C@H](C)C(=O)N[C@H](CC(C)C)C(=O)N[C@H](CC(C)C)C(=O)N[C@H](CO)C(=O)N[C@H](C)C(=O)NCC(=O)N[C@H](CCC(=O)O)C(=O)N[C@H](CO)C(=O)N[C@H](C)C(=O)N[C@H](CC(C)C)C(=O)N[C@H](CCCCN)C(=O)NCC(=O)N[C@H](CC(C)C)C(=O)N[C@H](C)C(=O)N[C@H](CCCCN)C(=O)NCC(=O)N[C@H](CC(C)C)C(=O)N[C@H](C)C(=O)N[C@H](CCC(=O)O)C(=O)N[C@H](Cc1c[nH]cn1)C(=O)N[C@H](Cc1ccccc1)C(=O)N[C@H](C)C(=O)N[C@H](CC(N)=O)C(N)=O)[C@H](C)CC` [BMBN-7] (Palmitoyl-[dE][dR][dN][dN][dF]GGGG[dI]GG[dA][dL][dL][dS][dA]G[dE][dS][dA][dL][dK]G[dL][dA][dK]G[dL][dA][dE][dH][dF][dA][dN]-NH2), the “MBIC (concentration that inhibits the biofilm)” value in data set [1] is 56 to 117 µg/mL. Besides, the “hemolytic activity (in words)” value in data set [3] is listed as “negligible hemolytic activity”.

On to “GIGGALLSAGKSALKGLAKGLAEHFAN-NH2 [Wildtype BLP-7, reference compound]”, for which the “hemolytic activity (in words)” value in data set [3] is given as “within the range of negligible hemolytic activity”.
